# Where a name gives a salt, the structure may show the parent alone.
# Tests used:
# [1] = tested on: Adjuvant Edema; experiment: Preventative Adjuvant Edema (Freund's complete adjuvant, hind paw volume); assay type: in vivo, rat (male Sprague Dawley); conditions: for ED50: ED50, rat (second results table); for Preventative Adjuvant Edema % Inhibition: 25 mg/kg, p.o., rat
# Experimental: This test is a primary screen for anti-inflammatory drugs.
# Male Sprague Dawley rats (180-200 g) are used. The animals have free access water but food is withdrawn 18 hours before testing.
# Drug Preparations and Administration:
# Freund's complete adjuvant is prepared by suspending 5 mg killed and dried Mycobacterium butyricum (Difco) in 1 ml liquid paraffin. The test compounds are dissolved in distilled water or suspended in distilled water with a few drops of Tween 80 according to their solubility. For primary screening all drugs are administrated by gastric lavage at the arbitrary dosage of 100 mg/kg, p.o. in a volume of 0.5 ml/100 g body weight to groups of 10 animals.
# The method is essentially that described by Wax et al., J. Pharmacol. Exp. Ther., 192, 166-171 (1975). Groups of rats are injected intradermally in the left hind paw with 0.1 ml of Freund's complete adjuvant. The test compound or vehicle is administrated before the adjuvant, 24 hours and 48 hours after the adjuvant (day 0, 1 and 2). The injected hind paw volume is measured before the injection of adjuvant and 24 hrs. after the last drug administration (day 3) by means of a plethysmometer (Buxco Electronics Inc.). The difference between then hind paw volume on day 0 and day 3 represents the edema volume. Phenylbutazone (50 mg/kg, p.o.) is included as a positive control.
# The mean edema volume (expressed as ml±SEM) is calculated for each group and the percentage protection conferred by the drug is calculated:
# where c is the mean edema volume for the untreated controls and t is the mean edema volume for the drug treated group.
# [2] = tested on: Phenylquinone Writhing; experiment: Phenylquinone-induced writhing in mice; assay type: in vivo, mouse (male Swiss albino); conditions: for ED50: ED50, mice (second results table); for Phenylquinone Writhing in Mice % Inhibition: p.o.
# Experimental: A further test used to determine the utility of the compounds of the present invention is designated: DRUG EFFECTS ON PHENYLQUINONE-INDUCED WRITHING IN MICE […]
# The objective of this test is to determine the ability of test drugs to inhibit the nociceptive (pain) response of mice injected with a chemical irritant. This test is a primary screen for both peripheral and centrally acting analgesic drugs.
# Male Swiss albino mice (15-25 g). The animals are fasted for 18 hours prior to use but have free access to water.
# (§1) Drug Preparation and Administration:
# Drugs are dissolved or suspended according to their solubility in 0.5% methyl cellulose or 0.5% Tween 80. They are administered by gastric lavage in a volume of 5 ml/kg. For primary screening all drugs are administered at the arbitrary dosage of 200 mg/kg, p.o. to a group of 10 mice.
# A modification of the method of Siegmund at el., Proc. Soc. Exp. Biol. Med., 95, 729-731 (1957) is used. Groups of 5 mice are dosed with the test compound or vehicle control. Sixty minutes later the animals are injected i.p. with 0.3 ml/20 g body weight of a 0.02% solution of phenylquinone (PBQ; 2-phenyl-1,4-benzoquinone) and placed in individual observation boxes. The numer of writhing or abdominal squirming movements made by each mouse during the following 15 min. period is counted. The experiment is repeated with another group of 5 mice and the mean number of writhes per mouse for a group of 10 mice is calculated.
# Drug treated and vehicle-treated control groups are compared and the percentage protection conferred by the drug is calculated:
# Percentage protection=(c-t)100/c […]
# where c=mean number of writhes in the control group where t=mean number of writhes in the test drug group
# [3] = tested on: inflamed paw; experiment: Paw Pressure Test in the Rat (Freund's adjuvant inflamed paw, pain threshold); assay type: in vivo, rat (male Sprague Dawley); conditions: po; ED50, rat (second results table)
# Text: A still further test used to determine the utility of the compounds of the present invention is designated: PAW PRESSURE TEST IN THE RAT
# The objective of this test is to assess the potency of peripheral and central acting drugs in inhibiting the reaction of rats to painful stimulation applied to an inflamed paw.
# Male Sprague Dawley rats (180-200 g) are used. The animals are fasted overnight prior to drug administration.
# as §1
# Freund's Complete Adjuvant (FCA) is prepared by suspending 5 mg killed and dried mycobacterium butyricum (Difco) in 1 ml liquid paraffin. The test compounds are dissolved, or suspended with a few drops of Tween 80, in distilled water according to their solubility. They are administered by gastric gavage in a volume of 0.5 ml/100 g body weight to groups of 10 animals.
# Ten rats are used per group. The method is essentially that described by Randall, et al., Arch. Int. Pharmacodyn. 111, 409 (1957) and the apparatus which is used to apply pressure to the paw (Analgesy-meter for the rat paw, Ugo Basile from Coulbourn Instruments) is a modification of that described by Gilfoil et al., J. Pharmacol, 142, 1 (1963). The instrument is basically a device which exerts a force that increases at a constant rate. The force is continuously monitored by a pointer moving along a linear scale and is measured in grams. The inflammatory reaction is induced in the left hind paw of rats by injecting 0.1 ml of Freund's adjuvant intradermally. The test compound or vehicle is administered 24 hours after the adjuvant. Prior to drug administration the rats are selected for their paw sensitivity. Rats responding to a pain threshold greater than 10 g applied to the inflamed paw are rejected. The pain threshold (vocalization) is determined 1 and 3 hours later in the inflamed paw and the normal paw of the treated and control groups. The higher of the 2 readings will be considered as representative of the drug effect on the pain threshold.
# Presentation of results and Criteria for Activity:
# Each animal which has a reading 1.5 times greater than the mean reading of the control-group will be considered as responsive to treatment. The number of animals showing an analgesic effect is then determined in each group.
# The ED50 (dose which causes analgesia in 50% of the animals) using at least 3 doses is then determined, by the method described in Litchfield et al., J. Pharmacol. Exp. Ther., 96, 99 (1949).
# [4] = po, 72 h, rat (second results table), read-out: Preventative Adjuvant Edema percent inhibition
# [5] = Mus musculus, po, mice (second results table), read-out: Phenylquinone Writhing in Mice percent inhibition
SMILES,"ED50 ([2]; Mus musculus, po)","inhibition in vivo at 25 mg/kg [1, 4]","inhibition in vivo at 25 mg/kg [2, 5]",other results
C=CC[C@@H]1CC[C@](CC)(CC(=O)O)c2[nH]c3c(Cl)cccc3c21 (relative stereo) [Example 16],11 mg/kg,–,–,ED50 ([1]; po): 13 mg/kg; ED50 [3]: 0.89 mg/kg
C=CC[C@@H]1CC[C@](CC)(CC(=O)O)c2[nH]c3cc(CC)ccc3c21 (relative stereo) [Example 7],10 mg/kg,36%,–,ED50 [3]: 0.01 mg/kg
C=CC[C@@H]1CC[C@](CC)(CC(=O)O)c2[nH]c3c(Br)ccc(C)c3c21 (relative stereo) [Example 33],4.5 mg/kg,27%,–,ED50 [3]: 0.93 mg/kg
C=CC[C@@H]1CC[C@](CC)(CC(=O)O)c2[nH]c3c(C(C)C)cccc3c21 (relative stereo) [Example 10],–,43%,27%,–
C=CC[C@@H]1CC[C@](CC)(CC(=O)O)c2[nH]c3cccc(Cl)c3c21 (relative stereo) [Example 17],–,–,35%,ED50 ([1]; po): 6.6 mg/kg
C=CC[C@@H]1CC[C@](CC)(CC(=O)O)c2[nH]c3cccc(Br)c3c21 (relative stereo) [Example 19],–,50%,52%,–
C=CC[C@H]1CC[C@](CC)(CC(=O)O)c2[nH]c3c(CC)cccc3c21 (relative stereo) [Example 4],–,35%,–,"inhibition in vivo at 100 mg/kg ([2]; Mus musculus, po, dose 100 mg/kg, mice (second results table), read-out: Phenylquinone Writhing in Mice percent inhibition): 9%; ED50 [3]: 0.02 mg/kg"
C=CC[C@@H]1CC[C@](CC)(CC(=O)O)c2[nH]c3c(C)ccc(Cl)c3c21 (relative stereo) [Example 38],5.4 mg/kg,48%,–,–
"C=CC[C@@H]1CC[C@](CC)(CC(=O)O)c2c1c1cccc(CC)c1n2C (relative stereo) [Example 43, cis-1,8-Diethyl-2,3,4,9-tetrahydro-9-methyl-4-(2-propenyl)-1H-Carbazole-1-acetic Acid]",–,–,–,"inhibition in vivo at 200 mg/kg ([2]; Mus musculus, po, dose 200 mg/kg, mice (second results table), read-out: Phenylquinone Writhing in Mice percent inhibition): 32%; ED50 [3]: 8 mg/kg"
C=CC(C)(C)C1CCC(CC)(CC(=O)O)c2[nH]c3c(C)c(Cl)ccc3c21 (centres unmarked) [Example 35],–,30%,28%,–
C=CC[C@@H]1CC[C@](CC)(CC(=O)O)c2[nH]c3c(CCC)cccc3c21 (relative stereo) [Example 5],28.7 mg/kg,39%,–,"inhibition in vivo at 10 mg/kg ([1]; po, 72 h, dose 10 mg/kg, rat (second results table), read-out: Preventative Adjuvant Edema percent inhibition): 29%; ED50 [3]: 0.009 mg/kg"
"C=CC[C@H]1CC[C@@](CC)(CC(=O)O)c2[nH]c3c(CC)cccc3c21 [Example 45, (1S-cis)-1,8-Diethyl-2,3,4,9-tetrahydro-4-(2-propenyl)-1H-carbazole-1-acetic Acid Benzenemethanamine Salt (1:1)]",–,54%,94%,ED50 [3]: 0.011 mg/kg
C=CCC1CCC(C)(CC(=O)O)c2[nH]c3c(CC)cccc3c21 (centres unmarked) [Example 9],–,38%,37%,–
C=CC[C@@H]1CC[C@](CC)(CC(=O)O)c2[nH]c3c(I)cccc3c21 (relative stereo) [Example 22],17 mg/kg,46%,–,–
C=CCC1CCC(CCC)(CC(=O)O)c2[nH]c3c(CC)cccc3c21 (centres unmarked) [Example 21],–,24%,21%,–
C=CC(C)(C)C1CCC(CC)(CC(=O)O)c2[nH]c3c(F)cccc3c21 (centres unmarked) [Example 23],–,16%,41%,–
C=CC[C@@H]1CC[C@](CC)(CC(=O)O)c2[nH]c3cc(Br)ccc3c21 (relative stereo) [Example 18],3.6 mg/kg,–,–,ED50 ([1]; po): 17.5 mg/kg
C=CC[C@@H]1CC[C@](CC)(CC(=O)O)c2[nH]c3c(Cl)cc(Cl)cc3c21 (relative stereo) [Example 36],7.6 mg/kg,35%,–,–
C=CC[C@@H]1CC[C@](CC)(CC(=O)O)c2[nH]c3c(F)cccc3c21 (relative stereo) [Example 15],–,–,27%,ED50 ([1]; po): 13.3 mg/kg
C=CC[C@@H]1CC[C@](CC)(CC(=O)O)c2[nH]c3ccc(F)cc3c21 (relative stereo) [Example 13],–,36%,20%,–
C=C(C)CC1CCC(CC)(CC(=O)O)c2[nH]c3ccccc3c21 (centres unmarked) [Example 24],–,56%,29%,–
"CCc1cccc2c3c([nH]c12)C(CC)(CC(=O)O)CCC3Cc1ccccc1 (single isomer, unassigned) [Example 2 Isomer B, 1,8-Diethyl-2,3,4,9-tetrahydro-4-(phenylmethyl)-1H-carbazole-1-acetic Acid]",–,–,–,Preventative Adjuvant Edema % Inhibition [1]: 38%; Phenylquinone Writhing in Mice % Inhibition ([2]; 25 mg/kg): 55%
C=CC[C@@H]1CC[C@](CC)(CC(=O)O)c2[nH]c3c(C)c(Br)ccc3c21 (relative stereo) [Example 37],3 mg/kg,34%,–,–
"CCCC1CCC(CC)(CC(=O)O)c2[nH]c3c(CC)cccc3c21 (centres unmarked) [4-propyl-1,8-diethyl-2,3,4,9-tetrahydro-1H--carbazole-1-acetic acid, reference compound]",–,–,–,Phenylquinone Writhing in Mice % Inhibition ([2]; 25 mg/kg): 15%; Phenylquinone Writhing in Mice % Inhibition ([2]; 200 mg/kg): 56%
C=CC[C@@H]1CC[C@](CC)(CC(=O)O)c2[nH]c3c(Br)cccc3c21 (relative stereo) [Example 14],–,–,38%,ED50 ([1]; po): 28 mg/kg
"CCc1cccc2c3c([nH]c12)C(CC)(CC(=O)O)CCC3Cc1ccccc1 (single isomer, unassigned) [Example 2 Isomer A, 1,8-Diethyl-2,3,4,9-tetrahydro-4-(phenylmethyl)-1H-carbazole-1-acetic Acid]",–,–,–,Preventative Adjuvant Edema % Inhibition [1]: 6%; Phenylquinone Writhing in Mice % Inhibition ([2]; 25 mg/kg): 15%
